# According to US20090312316A1, “NOVEL COMPOUNDS” (priority 2006, published 2009):
# What was measured:
# [1] = tested on: mouse colon adenocarcinoma cells; conditions: subtoxic dose; cited from earlier work
# [2] = tested on: Lewis lung adenocarcinoma; conditions: cited from earlier work
# [3] = Cleavage studies in rat blood to give the parent acid 6; assay type: in vitro ADME; conditions: rat blood (EDTA), 0.01 mg/mL, 37° C.; for cleavage to give the parent compound 6: up to 180 minutes
# Protocol: The sample was diluted to a volume of 1 mL by addition of 0.1 M aqueous KH2PO4. […] An Oasis MAX cartridge (1 cc/30 mg) was conditioned with 1 mL MeOH and 1 mL water successively. The supernatant was transferred to the conditioned cartridge at a flow rate of 1-2 mL/min. […] The extracts were transferred to autosampler vials and immediately analysed by LC/MS. […] LCMS was performed on a Bruker Daltonics Esquire 3000+ mass spectrometer equipped with an electrospray source coupled to the HPLC. […] Injection volume: 0.05 mL. HPLC was performed on a Waters Symmetry C8 3.5 micron column, 50 mm×2.1 mm, running a mobile phase of: mobile phase A: 0.1% formic acid in water; mobile phase B: 0.1% Formic acid in acetonitrile; flow rate: 1 mL/minute. […] Fragmentation of this molecular species results in a spectrum with intense ions at m/z 271 and 412. The daughter ion at m/z 412 can be ideally selected for quantification.
# CAM vasculature = experiment: Chick chorioallantoic membrane (CAM) assay of anti-angiogenic activity; assay type: in vivo; conditions: for Ratio of inhibition of CAM vasculature at 25 ng/CAM to in vitro cancer cell inhibition at 1 uM: 25 ng/CAM versus 1 uM in cancer cell panel; for Mean blood vessel density score: angiogenesis score up to 32 (highest density), 0 = no angiogenesis, mean of ten experiments; for anti-angiogenic therapeutic index (ratio of anti-angiogenesis to general cell inhibition), in words: as compared to 1 and 6
# Protocol: Fresh fertile eggs were be incubated for 3 days in a standard egg incubator at 37° C. for 3 days. On Day 3, eggs were cracked under sterile conditions and embryos were placed into 20×100 mm plastic plates and cultivated at 37° C. in an embryo incubator with a water reservoir on the bottom shelf. Air was continuously bubbled into the water reservoir using a small pump so that the humidity in the incubator was kept constant. […] Embryos were returned to the incubator after addition of test material. Control embryos received 10 μL of vehicle alone. […] The blood vessel density was semi-quantitatively measured using an angiogenesis scoring system, in that exponential numbers 1 to 32 were used to indicate number of blood vessels present at the treatment sites on the CAM. Number 32 represented the highest density and 0 represented no angiogenesis. The percent of inhibition at each dosing site was calculated using the score recorded for that site divided by the mean score obtained from the appropriate control samples for each individual experiment. The percent of inhibition for each dose of a given compound was calculated by pooling all results obtained for that dose.
# [4] = tested on: panel of 12 human tumour cell lines; experiment: monolayer proliferation assay (modified propidium iodide assay) in a panel of 12 human tumour cell lines; assay type: cell-based; conditions: for Mean % T/C at 1 μM / Mean % T/C at 10 μM: mean growth across 12 cell-line panel, treated/control x 100, 4 days exposure
# Protocol: In vitro evaluation of compounds for anticancer activity in a panel of 12 human tumour cell lines in a monolayer proliferation assay was carried out at the Oncotest Testing Facility, Institute for Experimental Oncology, Oncotest GmbH, Freiburg.
# The Oncotest cell lines were established from human tumor xenografts as described by Roth et al., (1999). The origin of the donor xenografts was described by Fiebig et al., (1999). Other cell lines were either obtained from the NCI (H460, SF-268, OVCAR-3, DU145, MDA-MB-231, MDA-MB-468) or purchased from DSMZ, Braunschweig, Germany (LNCAP).
# All cell lines, unless otherwise specified, were grown at 37° C. in a humidified atmosphere (95% air, 5% CO2) in a ‘ready-mix’ medium containing RPMI 1640 medium, 10% fetal calf serum, and 0.1 mg/mL gentamicin (PAA, Cölbe, Germany).
# A modified propidium iodide assay was used to assess the effects of the test compound(s) on the growth of human tumour cell lines (Dengler et al., (1995)).
# Briefly, cells were harvested from exponential phase cultures by trypsinization, counted and plated in 96 well flat-bottomed microtitre plates at a cell density dependent on the cell line (5-10.000 viable cells/well). After 24 h recovery to allow the cells to resume exponential growth, 0.010 mL of culture medium (6 control wells per plate) or culture medium containing macbecin were added to the wells. Each concentration was plated in triplicate. Compounds were applied in two concentrations (0.001 mM and 0.01 mM). Following 4 days of continuous exposure, cell culture medium with or without test compound was replaced by 0.2 mL of an aqueous propidium iodide (PI) solution (7 mg/L). To measure the proportion of living cells, cells were permeabilized by freezing the plates. After thawing the plates, fluorescence was measured using the Cytofluor 4000 microplate reader (excitation 530 nm, emission 620 nm), giving a direct relationship to the total number of viable cells.
# The mean growth inhibition across the 12 cell-line panel was expressed as treated/control×100 (% T/C).
# In vitro evaluation of the test compounds for anticancer activity in a panel of human tumour cell lines in a monolayer proliferation assay was carried out as described in the general methods using a modified propidium iodide assay. This screen may be used as a model for the toxic effect of compounds in inhibiting general cell growth.
# capillary tube formation = conditions: Wakabayashi et al., 1997, cited from earlier work
# [5] = tested on: protein synthesis in the cultured rat cells; conditions: cited from earlier work
# [6] = tested on: VEGF-induced angiogenesis (WiDr cells); conditions: 1.8 mg/kg by intraperitoneal injection; Funahashi et al., 1999; cited from earlier work
# [7] = biological target: cyclin-dependant kinase Cdc28/Cln2 (Saccharomyces cerevisiae, UniProt P00546); conditions: Tsuchiya et al., 2001; cited from earlier work
# B16-BL6 melanoma cells = conditions: same dosage (1.8 mg/kg); cited from earlier work
# [8] = tested on: human umbilical vein endothelial cells (HUVEC); conditions: cited from earlier work
# [9] = 1 uM, 100 minus mean %T/C at 1 uM of Table III
# Chain of cyclin-dependant kinase Cdc28/Cln2 (P00546 whole entry): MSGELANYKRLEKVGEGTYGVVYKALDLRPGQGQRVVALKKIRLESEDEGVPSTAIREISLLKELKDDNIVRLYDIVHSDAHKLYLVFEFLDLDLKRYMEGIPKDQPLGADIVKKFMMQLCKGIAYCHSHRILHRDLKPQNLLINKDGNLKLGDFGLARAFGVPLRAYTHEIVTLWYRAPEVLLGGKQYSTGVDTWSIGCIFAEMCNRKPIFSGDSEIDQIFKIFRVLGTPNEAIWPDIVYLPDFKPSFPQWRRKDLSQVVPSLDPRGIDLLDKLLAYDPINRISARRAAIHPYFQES
# Chain of cyclin-dependant kinase Cdc28/Cln2 (P20438 whole entry partner): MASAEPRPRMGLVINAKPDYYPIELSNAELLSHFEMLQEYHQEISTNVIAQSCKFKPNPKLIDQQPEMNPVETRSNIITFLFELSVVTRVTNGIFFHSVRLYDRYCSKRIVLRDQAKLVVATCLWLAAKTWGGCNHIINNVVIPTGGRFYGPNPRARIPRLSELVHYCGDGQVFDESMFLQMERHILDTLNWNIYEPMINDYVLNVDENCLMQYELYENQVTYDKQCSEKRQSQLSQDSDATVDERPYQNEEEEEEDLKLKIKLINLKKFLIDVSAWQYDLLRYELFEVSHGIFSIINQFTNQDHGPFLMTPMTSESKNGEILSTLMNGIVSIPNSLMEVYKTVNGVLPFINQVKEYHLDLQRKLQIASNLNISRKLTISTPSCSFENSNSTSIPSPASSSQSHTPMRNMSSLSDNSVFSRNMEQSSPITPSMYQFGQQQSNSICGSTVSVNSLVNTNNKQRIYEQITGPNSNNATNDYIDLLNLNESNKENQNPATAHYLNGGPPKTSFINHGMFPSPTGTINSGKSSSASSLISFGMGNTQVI
Compound,cleavage to give the parent compound 6 [3],Mean percentage inhibition of CAM vasculature at 25 ng/CAM (CAM vasculature) [%],Ratio of inhibition of CAM vasculature at 25 ng/CAM to in vitro cancer cell inhibition at 1 uM (CAM vasculature),Mean blood vessel density score (CAM vasculature),"anti-angiogenic therapeutic index (ratio of anti-angiogenesis to general cell inhibition), in words (CAM vasculature)","Mean percentage Inhibition of cancer cell lines at 1 uM [4, 9] [%]",Mean % T/C at 1 μM [4] [% T/C],Mean % T/C at 10 μM [4] [% T/C],inhibition of cell growth at 1 μM (in words) [4],also measured
"CC1CC(C)CC(C)C(O)CC(=O)OC(C2CCCC2C(=O)NCc2cccnc2)C(C#N)=CC=CCC(O)C(C)C1 (stereo not shown) [borrelidin-(3-picolylamide) derivative, borrelidin-(3-picolylamide)]",–,–,–,–,–,–,–,–,–,"metastasis-forming ability of mouse colon adenocarcinoma cells transplanted into mouse spleen [1]: considerably decreased; increase of micrometastases ([2]; rats, intraperitoneal and per os administration at subtoxic doses): inhibit very considerably"
17-des(cyclopentane-2-carboxylic acid)-17-(cyclobutane-2-carboxylic acid)borrelidin (4-(2-hydroxyethyl))morpholine ester [Compound 7],rapidly cleaved,54,0.84,7.8,improved,64,36,8,–,half-life for the cleavage to parent compound 6 [3]: ~12 min
"C[C@@H]1C[C@H](C)C[C@H](C)[C@@H](O)CC(=O)O[C@H]([C@@H]2CCC[C@H]2C(=O)O)C/C=C/C=C(/C#N)[C@H](O)[C@@H](C)C1 [Compound 1, Borrelidin]",–,62,0.6,6.4,–,–,7,6,–,"IC50 inhibition of capillary tube formation (capillary tube formation): 0.0004 µg/mL; IC50 (capillary tube formation; read-out: IC50 inhibition of capillary tube formation): 0.8 nM; anti-angiogenesis IC50 lower than IC50 for inhibition of protein synthesis ([5]; 0.4 ng/mL versus 20 ng/mL): 50 fold; IC50 inhibition of protein synthesis ([5]; cultured rat cells): 0.02 µg/mL; increment of vascular volume induced by WiDr cells [6]: significantly reduce; IC50 Cdc28/Cln2 [7]: 12 µg/mL; inhibition of the formation of spontaneous lung metastases (B16-BL6 melanoma cells): effective; inhibition at 1 µM ([4]; Homo sapiens, 1 uM, 100 minus mean %T/C at 1 uM of Table III, read-out: Mean percentage Inhibition of cancer cell lines at 1 uM): 93%; IC50 anti-proliferative activity towards HUVEC ([8]; cell growth assay, Wakabayashi et al., 1997): 0.006 µg/mL; HUVEC anti-proliferative IC50 weaker than anti-angiogenesis activity ([8]; measured in the same medium): 15 fold; propagation of metastatic nodules after removal of the primary tumour ([2]; WO 01/09113): weakly inhibited"
"CC1CC(C)CC(C)C(O)C(C#N)=CC=CCC(C2CCC2C(=O)NCCc2cccnc2)OC(=O)CC(O)C(C)C1 (stereo not shown) [Compound 13, 17-des(cyclopentane-2-carboxylic acid)-17-(cyclobutane-2-carboxylic acid)borrelidin (3-(2-aminoethyl))pyridine amide]",did not cleave,–,–,–,–,–,97,37,little or no inhibition of cell growth,–
"CC1CC(C)CC(C)C(O)C(C#N)=CC=CCC(C2CCC2C(=O)NCCN2CCOCC2)OC(=O)CC(O)C(C)C1 (stereo not shown) [Compound 9, 17-des(cyclopentane-2-carboxylic acid)-17-(cyclobutane-2-carboxylic acid)borrelidin (4-(2-aminoethyl))morpholine amide]",did not cleave,60,>60,6.8,especially good,0,101,43,little or no inhibition of cell growth,–
